Results taken from patent publication US9017744B2, “Method of using isomaltulose to suppress blood glucose level increase” (Mitsui Sugar Co., Ltd., priority 2002, dated 2015).

What was measured:
[1] = Blood glucose level test after ingesting drinks (Example 1); type: in vivo, human; settings: for blood glucose level increase: FIG. 1
Procedure: Using each of the Comparative drinks as a control sample, a blood glucose level test after ingesting the drink was performed as will be described later. […] Using each of the Example drinks as a test sample, a blood glucose level test after ingesting the drink was performed. The blood glucose level test was as follows: Five healthy volunteers (4 males and 1 female), 31-40 aged, were selected as the test subjects. They took no breakfast on a test day and kept fasting for 12 hrs or more before the start of the test. Their bloods were collected before ingesting a drink (0 min), and 30 min, 60 min, 90 min, and 120 min after ingesting it. As a result their blood glucose levels are determined. One kind of drink was ingested for one test. Another drink was ingested on another day and the test was carried out once a day for total 8 days. The same five test subjects were applied to all the tests for blood glucose levels. In the Example 1, the free style Kissei kit (made by Kissei Pharmaceutical Co., LTD) was used to collect blood samples and test a blood glucose level.

[2] = Heat coloring of carbohydrate with glutamic acid (Test Example 1); type: physicochemical; settings: for absorbance at a wavelength of 420 nm: 5 g carbohydrate + 1 g glutamic acid in 50 g
Procedure: 5 g of carbohydrate and 1 g of glutamic acid were dissolved in distilled water to prepare a sample having a total weight of 50 g. […] These samples were filled in 100 ml capped vials and then heated at 100° C. for 50 min. After the heating, samples were cooled and respective absorbances were measured at a wavelength of 420 nm.
Three same kinds of samples were prepared and treated in an autoclave at 121° C. for 20 min, that is, the same level as in retort sterilization for a canned food, and measured the absorbance at a wavelength of 420 nm.

[3] = Crystallization of 50 wt % solutions stored at 5° C. (Test Example 2); type: physicochemical
Procedure: Dissolution was performed until no crystal remained at 50° C. These vials were put in a refrigerator set at 5° C. to observe crystallization.

[4] = rats; high fat diet, all sucrose replaced by isomaltulose, compared with sucrose-containing feed; cited from earlier work
[5] = Body fat accumulation in mice fed feeds for 8 weeks (Example 3); type: in vivo, C57BL/6CrSlc(SPF) male mice
Description: Mice were consecutively fed with a feed added with isomaltulose, a feed added with sucrose and no isomaltulose, and a feed added with both isomaltulose and sucrose to compare their body fat accumulation amount.
C57BL/6CrSlc(SPF) male mice (30 heads) aged 7 weeks were fed with a commercial powder feed (trade name: CRF-1 powder, made by Oriental Yeast Co., LTD) and water ad libitum to prefeed for a week. […] The groups were fed with their respective feeds and water ad libitum for 8 weeks. The feeding condition was as follows: temperature 22±3° C., humidity (relative humidity) 50±20%, ventilation cycles 13-17 times/hr, and lighting time 8:00-20:00 (light 12 hrs, dark 12 hrs).
After the end of the feeding, the mice were light anesthetized with ether and sectioned abdominally to exsanguinate from postcava to death. For a typical example of every group, digital photographs showing body fat accumulation inside the abdominal cavity were taken. Then, for all the cases, the kidney peripheral fat (including the retroperitoneal fat) and the epididymis peripheral fat were taken out to measure their wet weights separately in left and right. The mesenteric fat also was taken out to measure its wet weight. These three kinds of fat tissues are typical of visceral fat. […]

[6] = monohydrate; at 20° C.; cited from earlier work
[7] = autoclave at 121° C. for 20 min

Row | SMILES | blood glucose level 30 minutes after ingesting ([1]; 25 g ingested alone (Comparative example)) | blood glucose level 30 minutes after ingesting ([1]; 50 g ingested alone (Comparative example)) | visual colour of sample [2, 7] | crystallization observed ([3]; 50 wt % total sugar solution, during 6 days) | body fat accumulation amount [4] | increase in blood glucose level after consuming the carbohydrates ([1]; 25 g isomaltulose in combination with 25 g sucrose or 25 g glucose) | area under blood glucose level increase curve ([1]; 25 g isomaltulose in combination with 25 g sucrose or 25 g glucose, compared with the Comparative groups) | minimum intake of isomaltulose necessary to reduce an increase in blood glucose level ([1]; in vivo) | blood glucose level increase ([1]; simultaneous ingestion of 25 g isomaltulose and 25 g glucose, compared with 25 g glucose alone) | blood glucose level increase ([1]; simultaneous ingestion of 25 g isomaltulose and 25 g sucrose, compared with 50 g sucrose alone and 25 g sucrose alone) | isomaltulose ratio in total carbohydrate at which the GI value surely decreased ([1]; total carbohydrate weight 50 g, FIG. 4) | ratio of isomaltulose in carbohydrate at which it reduces the accumulation of body fat ([5]; mouse, in vivo) | minimum intake of isomaltulose necessary to reduce a body fat accumulation ([5]; presumed, in terms of a person having a body weight of 60 kg) | solubility [6] | absorbance at a wavelength of 420 nm [2, 7] | absorbance at a wavelength of 420 nm ([2]; heated at 100° C. for 50 min) | storage time at which crystallization began ([3]; 50 wt % solution, 100 ml) | amount of crystal ([3]; 50 wt % solution, 100 ml, after 6 days)
1 | OC[C@H]1O[C@@](CO)(O[C@H]2O[C@H](CO)[C@@H](O)[C@H](O)[C@H]2O)[C@@H](O)[C@@H]1O [sucrose, reference compound] | sudden increase | sudden increase | clearly light brown | no crystallization |  |  |  |  |  |  |  |  |  |  |  |  |  | 
2 | OC[C@H]1O[C@H](OC[C@H]2OC(O)(CO)[C@@H](O)[C@@H]2O)[C@H](O)[C@@H](O)[C@@H]1O (stereo partly drawn) [isomaltulose, 6-O-alpha-D-Glucopyranosyl-D-fructofuranose] |  |  | clearly deep brown |  | lower body fat accumulation amount | no sudden increases | significantly lower values | ≥ 5 g | reduced | reduced | ≥ 10% | ≥ 20% | ≥ 10 g | 38.4 g in 100 g water | 0.322 | 0.004 | 2 days | 10.77 g
